Results as given in US6638972B2, “Chroman and benzofuran derivatives as 5-hydroxytryptamine-6 ligands” (Wyeth, priority 2001, dated 2003).
Where a name gives a salt, the structure may show the parent alone. Read-outs that look alike come from different tables or passages of the source.

Experiments:
[1] = target: T1, human cloned 5-HT6 receptors (Homo sapiens, UniProt P50406); assay: 5-HT6 binding affinity ([3H]-LSD displacement, membranes of Hela cells expressing human cloned 5-HT6 receptors); conditions: [3H]-LSD 3.0 nM, Hela cell membranes, 120 min at room temperature
T1 construct: expressed in transfected cells; host or cells: HeLa cells (membrane preparation)
T1 sequence (P50406 whole entry): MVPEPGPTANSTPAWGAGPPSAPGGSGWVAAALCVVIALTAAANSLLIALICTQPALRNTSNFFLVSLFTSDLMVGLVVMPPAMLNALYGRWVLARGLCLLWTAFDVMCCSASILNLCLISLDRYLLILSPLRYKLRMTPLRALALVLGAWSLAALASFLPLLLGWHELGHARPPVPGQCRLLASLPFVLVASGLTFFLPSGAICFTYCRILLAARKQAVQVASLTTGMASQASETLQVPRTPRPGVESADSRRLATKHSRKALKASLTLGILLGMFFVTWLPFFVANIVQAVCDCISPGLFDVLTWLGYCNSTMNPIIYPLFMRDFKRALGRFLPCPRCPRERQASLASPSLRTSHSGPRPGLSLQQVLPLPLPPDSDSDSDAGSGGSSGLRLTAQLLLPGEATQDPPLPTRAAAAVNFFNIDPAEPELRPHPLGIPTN
Protocol: The affinity of test compounds for the serotonin 5-T6 receptor is evaluated in the following manner. Cultured Hela cells expressing human cloned 5-HT6 receptors are harvested and centrifuged at low speed (1,000×g) for 10.0 min to remove the culture media. The harvested cells are suspended in half volume of fresh physiological phosphate buffered saline solution and recentrifuged at the same speed. This operation is repeated. The collected cells are then homogenized in ten volumes of 50 mM Tris.HCl (pH 7.4) and 0.5 mM EDTA. The homogenate is centrifuged at 40,000×g for 30.0 min and the precipitate is collected. The obtained pellet is resuspended in 10 volumes of Tris.HCl buffer and recentrifuged at the same speed. The final pellet is suspended in a small volume of Tris.HCl buffer and the tissue protein content is determined in aliquots of 10-25 μl volumes. Bovine Serum Albumin is used as the standard in the protein determination according to the method described in Lowry et al., J. Biol. Chem., 193:265 (1951). The volume of the suspended cell membranes is adjusted to give a tissue protein concentration of 1.0 mg/ml of suspension. The prepared membrane suspension (10 times concentrated) is aliquoted in 1.0 ml volumes and stored at −70° C. until used in subsequent binding experiments.
Binding experiments are performed in a 96 well microtiter plate format, in a total volume of 200 μl. […] The test compounds are added in 20.0 μl volume.
The reaction is allowed to proceed in the dark for 120 min at room temperature, at which time, the bound ligand-receptor complex is filtered off on a 96 well unifilter with a Packard Filtermate® 196 Harvester. The bound complex caught on the filter disk is allowed to air dry and the radioactivity is measured in a Packard TopCount® equipped with six photomultiplier detectors, after the addition of 40.0 μl Microscint®-20 scintillant to each shallow well. The unifilter plate is heat-sealed and counted in a PackardTopCount® with a tritium efficiency of 31.0%.
Binding in the presence of varying concentrations of test compound is expressed as a percentage of specific binding in the absence of test compound. The results are plotted as log % bound versus log concentration of test compound. […] A linear regression line of data points is plotted, from which the IC50 value is determined and the Ki value is determined based upon the following equation: […]
where L is the concentration of the radioactive ligand used and KD is the dissociation constant of the ligand for the receptor, both expressed in nM.

SMILES	Ki ([1]; read-out: 5-HT6 Binding Ki)	melting point	Ki ([1]; 5-HT6 Binding Ki)
CCCCOCCCNCC1CCc2ccc(OCc3ccccc3)cc2O1 (stereo not shown) [Example 8, (7-benzyloxy-chroman-2-ylmethyl)-(3-butoxy-propyl)-amine]	16 nM		
O=[N+]([O-])c1ccc(OCCCNCC2CCc3ccc(OCc4ccccc4)cc3O2)cc1 (stereo not shown) [Example 32, (7-benzyloxy-chroman-2-ylmethyl)-[3-(4-nitro-phenoxy)-propyl]-amine]	157 nM	118 to 120 °C	
Cc1nc(COc2ccc3c(c2)OC(CNCCCO)CC3)cs1 (stereo not shown) (as salt: HCl) [Example 24, 3-{[7-(2-methyl-thiazol-4-ylmethoxy)-chroman-2-ylmethyl]-amino}-propan-1-ol]		123 to 128 °C	
OCCCNCC1CCc2ccc(Oc3ccccc3)cc2O1 (stereo not shown) [Example 15, 3-[(7-phenoxy-chroman-2-ylmethyl)-amino]-propan-1-ol]	283 nM		
Cc1nc(COc2ccc3c(c2)OC(CNCCCO)CC3)cs1 (stereo not shown) (as salt: salt) [Example 23, 3-{[7-(2-methyl-thiazol-4-ylmethoxy)-chroman-2-ylmethyl]-amino}-propan-1-ol]		94 to 102 °C	
CCCCOCCCNCC1CCc2ccc(OCc3ccccc3)cc2O1 (stereo not shown) (as salt: hydrochloride) [Example 8, (7-benzyloxy-chroman-2-ylmethyl)-(3-butoxy-propyl)-amine]		130 to 132 °C	
c1ccc(COCCCNCC2CCc3ccc(OCc4ccccc4)cc3O2)cc1 (stereo not shown) [Example 11, (7-benzyloxy-chroman-2-ylmethyl)-(3-benzyloxy-propyl)-amine]	27 nM		
OCCCNCC1CCc2ccc(OCCc3ccccc3)cc2O1 (stereo not shown) [Example 22, 3-{[(7-(Phenethyloxy)chroman-2-ylmethyl]amino}propan-1-ol Hydrochloride]	101 nM		
OCCCNCc1cc2ccc(OCc3ccccc3)cc2o1 [Example 55, 3-[(6-benzyloxy-benzofuran-2-ylmethyl)-amino]-propan-1-ol]	1180 nM	145 to 147 °C	
OCCNCC1CCc2ccc(OCc3ccccc3)cc2O1 (stereo not shown) [Example 9, 2-[(7-benzyloxy-chroman-2-ylmethyl)-amino]-ethanol]	12 nM		
COCCCNC[C@H]1CCc2ccc(OCc3ccccc3)cc2O1 [Example 46, [(2R)-7-benzyloxy-chroman-2-ylmethyl]-(3-methoxy-propyl)-amine]	25 nM	128 to 129 °C	
OCCNCC1CCc2ccc(OCc3ccccc3)cc2O1 (stereo not shown) (as salt: hydrochloride) [Example 9, 2-[(7-benzyloxy-chroman-2-ylmethyl)-amino]-ethanol]		200 to 201 °C	
OC[C@H](CSCc1ccccc1)NCC1CCc2ccc(OCc3ccccc3)cc2O1 (stereo partly drawn) [Example 37, (2R)-2-[(7-benzyloxy-chroman-2-ylmethyl)-amino]-3-benzylsulfanyl-propan-1-ol]	303 nM	59 to 65 °C	
OCCNC[C@H]1CCc2ccc(OCc3ccccc3)cc2O1 [Example 44]	10 nM	196 to 197 °C	
Cc1nc(COc2ccc3c(c2)OC(CNCCCO)CC3)cs1 (stereo not shown) [Example 23, 3-{[7-(2-methyl-thiazol-4-ylmethoxy)-chroman-2-ylmethyl]-amino}-propan-1-ol]			41 nM
OCCCNCC1CCc2cc(Cl)c(OCc3ccccc3)cc2O1 (stereo not shown) [Example 29, 3-{[(7-Benzyloxy)-6-chlorochroman-2-ylmethyl]amino}propan-1-ol Fumaric Acid Salt]	34 nM		
O=c1ccc2ccc(OCCCNCC3CCc4cc(Cl)c(OCc5ccccc5)cc4O3)cc2o1 (stereo not shown) [Example 36, 7-{3-[(7-benzyloxy-6-chloro-chroman-2-ylmethyl)-amino]-propoxy}-chromen-2-one]	43 nM	92 to 95 °C	
c1ccc(CCCNCC2CCc3ccc(OCc4ccccc4)cc3O2)cc1 (stereo not shown) (as salt: hydrochloride) [Example 10, (7-benzyloxy-chroman-2-ylmethyl)-(3-phenyl-propyl)-amine]		138 to 139 °C	
Cc1nc(COc2ccc3c(c2)OC(CNCCCO)CC3)cs1 (stereo not shown) [Example 24, 3-{[7-(2-methyl-thiazol-4-ylmethoxy)-chroman-2-ylmethyl]-amino}-propan-1-ol]			120 nM
OCCCNCCC1CCc2ccc(OCc3ccccc3)cc2O1 (stereo not shown) [Example 42, 3-{[2-(7-Benzyloxy)chroman-2-yl]ethylamino}propan-1-ol Hydrochloride]	107 nM		

Further lines, with some results ahead:

Ki ([1]; read-out: 5-HT6 Binding Ki)	melting point	SMILES	Ki ([1]; 5-HT6 Binding Ki)
26 nM		c1ccc(CNCC2CCc3ccc(OCc4ccccc4)cc3O2)cc1 (stereo not shown) [Example 7, Benzyl-[(7-benzyloxy)chroman-2-yl]methylamine Hydrochloride]	
	178 to 179 °C	OCCCNCC1CCc2ccc(Oc3ccccc3)cc2O1 (stereo not shown) (as salt: hydrochloride) [Example 15, 3-[(7-phenoxy-chroman-2-ylmethyl)-amino]-propan-1-ol]	
27 nM		CN(CCCO)CC1CCc2ccc(OCc3ccccc3)cc2O1 (stereo not shown) [Example 30, 3-{[(7-benzyloxy)chroman-2-ylmethyl]methylamino}propan-1-ol Fumaric Acid Salt]	
9 nM	119 °C	OCCCNC[C@H]1CCc2ccc(OCc3ccccc3)cc2O1 [Example 45, 3-{[(2R)-7-benzyloxy-chroman-2-ylmethyl]-amino}-propan-1-ol]	
44 nM		c1ccc(CCCNCC2CCc3ccc(OCc4ccccc4)cc3O2)cc1 (stereo not shown) [Example 10, (7-benzyloxy-chroman-2-ylmethyl)-(3-phenyl-propyl)-amine]	
	114 to 115 °C	OCCCNCC1CCc2ccc(OCc3ccccc3Cl)cc2O1 (stereo not shown) (as salt: hydrochloride) [Example 14, 3-{[7-(2-chloro-benzyloxy)-chroman-2-ylmethyl]-amino}-propan-1-ol]	
339 nM	125 to 127 °C	OCCCNCC1Cc2ccc(OCc3ccccc3)cc2O1 (stereo not shown) [Example 53, 3-[(6-benzyloxy-2,3-dihydro-benzofuran-2-ylmethyl)-amino]-propan-1-ol]	
	159 to 160 °C	OCCCNCC1CCc2ccc(OCC3CCCCC3)cc2O1 (stereo not shown) (as salt: hydrochloride) [Example 13, 3-[(7-cyclohexylmethoxy-chroman-2-ylmethyl)-amino]-propan-1-ol]	
15 nM		NCC1CCc2ccc(OCc3ccccc3)cc2O1 (stereo not shown) [Example 6, [(7-Benzyloxy)chroman-2-yl]methylamine Hydrochloride]	
1350 nM	198 to 200 °C	c1ccc(CNCc2cc3ccc(OCc4ccccc4)cc3o2)cc1 [Example 54, benzyl-(6-benzyloxy-benzofuran-2-ylmethyl)-amine]	
	150 to 151 °C	CCCCNCC1CCc2ccc(OCc3ccccc3)cc2O1 (stereo not shown) (as salt: hydrochloride) [Example 12, (7-benzyloxy-chroman-2-ylmethyl)-butyl-amine]	
	138 to 139 °C	c1ccc(COCCCNCC2CCc3ccc(OCc4ccccc4)cc3O2)cc1 (stereo not shown) (as salt: hydrochloride) [Example 11, (7-benzyloxy-chroman-2-ylmethyl)-(3-benzyloxy-propyl)-amine]	
386 nM		OCCNCC1Cc2ccc(OCc3ccccc3)cc2O1 (stereo not shown) [Example 51, 2-{[6-(Benzyloxy)-2,3-dihydrobenzofuran-2-ylmethyl]amino}ethanol Hydrochloride]	
192 nM	110 to 116 °C	Clc1cccc(OCCCNCC2CCc3ccc(OCc4ccccc4)cc3O2)c1 (stereo not shown) [Example 34, (7-benzyloxy-chroman-2-ylmethyl)-[3-(3-chloro-phenoxy)-propyl]-amine]	
43 nM		CCCCNCC1CCc2ccc(OCc3ccccc3)cc2O1 (stereo not shown) [Example 12, (7-benzyloxy-chroman-2-ylmethyl)-butyl-amine]	
38 nM		OCCCNCC1CCc2ccc(OCc3ccccc3Cl)cc2O1 (stereo not shown) [Example 14, 3-{[7-(2-chloro-benzyloxy)-chroman-2-ylmethyl]-amino}-propan-1-ol]	
29 nM	63 to 68 °C	O=c1ccc2ccc(OCCCNCC3CCc4ccc(OCc5ccccc5)cc4O3)cc2o1 (stereo not shown) [Example 35, 7-{3-[(7-benzyloxy-chroman-2-ylmethyl)-amino]-propoxy}-chromen-2-one]	
357 nM		OCCCNCC1CCc2ccc(OCC3CCCCC3)cc2O1 (stereo not shown) [Example 13, 3-[(7-cyclohexylmethoxy-chroman-2-ylmethyl)-amino]-propan-1-ol]	
